From patent US20230233500A1, “Gasdermin D (GSDMD) Succination for the Treatment of Inflammatory Disease” (University of Massachusetts, priority 2020, published 2023)
Structures can show the parent of a compound that is named as a salt.

Test system: LPS septic shock in WT mice
Assay: LPS septic shock model
Type: in vivo, mouse
Protocol: FIGS. 1A-L. Fumarate inhibits pyroptosis. Bone marrow-derived macrophages (BMDMs) were treated as indicated and LDH, IL-1β or TNF-α measured by ELISA (A-C), GSDMD/β-actin by immunoblotting (D) or permeabilization of cells to SYTOX orange (E-F). GSDMD oligomerization in native and reduced cell lysates treated as above (G). Timecourse of permeabilization to SYTOX orange or GSDMD-N formation in cells treated as indicated (H-I). Survival rates of WT mice after 50 mg/kg of LPS (n−10) or LPS+fumarate (n=9) (J). Levels of IL-1β or TNF-α from serum of WT mice at 5 hours post-intraperitoneal injection with 5 mg/kg LPS (n=6) or control PBS (n=3) (K, L). A, B, C, I and are pooled from three independent experiments. D, E, F, G, H and I are representative from three independent experiments. J, K, L data points indicate individual mice. *, P<0.05, **, P<0.01; ***, P<0.001; ****, P<0.0001) (J, Mantel Cox survival analysis; A-C, K Two-way ANOVA). Error bars show means±SEM.
FIGS. 8A-B. Fumarate inhibits pyroptosis in vivo. (A-B) LC/MS Fumarate quantification in splenocytes (A) and IL-1 ELISA analysis (B) in serum from WT C57/BL6 mice administered FHIN2 (50 mg/kg) by IP injection followed by LPS (10 mg/kg) by IP injection for 5 hours. Data points indicative of individual mice. **, P<0.01 (Two-way ANOVA). Error bars show means±SEM.
Conditioned media or serum was collected as indicated and IL-1β or TNF-α, were quantified by sandwich ELISA (R&D Systems).
Mice aged 8-12 weeks were administered LPS 5 mg/kg by intraperitoneal injection. Serum was collected after 5 h for ELISA analysis. For survival studies, mice were administered LPS 50 mg/kg intraperitoneally and monitored every 12 h for up to 96 h.

SMILES: COC(=O)/C=C/C(=O)OC [Fumarate, Dimethyl fumarate]
- serum IL-1β levels (5 hours after ip LPS 5 mg/kg): reduced
- serum TNF-α levels (5 hours after ip LPS 5 mg/kg): not
- survival (lethal dose LPS 50 mg/kg, single dose of fumarate): increased survival
